Where two headings read alike, the source gives them in different places.
How the values were obtained:
[1] = system: sterol biosynthesis in L cells; test: Inhibition of sterol synthesis from [1-14C]acetate in L cell cultures; assay type: cell-based; conditions: Mus musculus, read-out: Concentrations Required for 50% Inhibition of Sterol Synthesis
Procedure: (§1) The effect of various 15-oxygenated sterols on sterol biosynthesis in L cells and in primary cultures of mouse liver cells was tested essentially under conditions described in detail previously [A. A. Kandutsch and H. W. Chen, J. Biol. Chem., Vol. 248, pp. 8408-8417 (1973) and A. A. Kandutsch and H. W. Chen, J. Biol. Chem., Vol. 249, pp. 6057-6061 (1974`)].
(§2) The primary liver cell cultures were prepared from 16-day-old (C57BL/6J fetuses and grown in chemically defined medium (serum-free) as described in the above cited publications. The L cells, a subline of NCTC clone 929 mouse fibroblasts, were grown in chemically defined medium (serum-free) as described in the publications. These L cells are transformed fibroblasts which are regarded as malignant since they will grow as tumors if injected into the mouse strain from which they were initially obtained.
(§3) The preparation of steroid-containing media, procedures for assays of the conversion of [1-^14 C]acetate into digitonin-precipitable sterols, fatty acids, and CO2 and methods for the measurement of DNA, protein, and HMG-CoA reductase were as described in the published articles. L cell cultures were preincubated with the 15-oxygenated sterols and their derivatives for 4 hours, then [1-^14 C]acetate was added at a concentration of 4 μmoles per ml (4 μCi per ml); or the L cell cultures were incubated for 5 hours with the 15-oxygenated sterols before they were harvested for determination of microsomal HMG-CoA reductase activity.
(§4) The test compounds were tested over a range of at least 4 concentrations and the assay was repeated until the concentration of test compound required to produce 50% inhibition was located on the steeply declining portion of an activity vs. concentration plot. To diminish any possible effects of generalized differences in cellular metabolism, the rates of sterol synthesis from [1-^14 C]acetate were calculated as the ratio of [^14 C]sterols to [^14 C]fatty acids as described in the two cited articles by Kandutsch and Chen.

[2] = system: sterol biosynthesis in primary cultures of mouse liver cells; test: Inhibition of sterol synthesis from [1-14C]acetate in primary cultures of liver cells; assay type: cell-based; conditions: read-out: Concentrations Required for 50% Inhibition of Sterol Synthesis
Procedure: as §1, §2, §3
(§5) Conditions for incubating the 15-oxygenated sterols or their derivatives with liver cell cultures were similar to those described for L cell cultures except that the cultures were incubated with the test compounds for 12 hours before labeled acetate was added or before they were harvested for enzyme assay.
as §4

HMG-CoA reductase [3] = test: Reduction of the activity of HMG-CoA reductase in L cell cultures; assay type: cell-based, mouse; conditions: read-out: Concentrations Required for 50% Reduction of the Activity of HMG-CoA Reductase
Procedure: as §2, §3
(§6) A number of the 15-oxygenated sterols have also been tested with respect to their effects on the activity and/or levels of the enzyme HMG-CoA reductase (3-hydroxy-3-methylglutaryl coenzyme A reductase) in the L cells and in the liver cells. As noted previously, this enzyme catalyzes the reduction of 3-hydroxy-3-methylglutaryl coenzyme A to yield mevalonic acid, an essential intermediate in the biosynthesis of sterols and of a number of other essential compounds in cells.
(§7) Using the technique described by Kandutsch and Chen in the article cited in the previous example, the concentrations of various 15-oxygenated sterols required to reduce the levels of activity of HMG-CoA reductase by 50% was determined in the cells of the L cells in culture and of the primary cultures of liver cells.

HMG-CoA reductase [4] = test: Reduction of the activity of HMG-CoA reductase in primary cultures of liver cells; assay type: cell-based, mouse; conditions: read-out: Concentrations Required for 50% Reduction of the Activity of HMG-CoA Reductase
Procedure: as §2, §3, §5, §6, §7

serum cholesterol = test: Effect on serum cholesterol levels in rats, daily subcutaneous injection (Examples 41, 42); assay type: in vivo, rat (male, Sprague-Dawley); conditions: for Serum Cholesterol (Mean ± S.E.M.): 5 mg s.c. once a day in triolein; for % Reduction of serum cholesterol (Mean ± S.E.M.): from initial levels in same rats
Procedure: Male rats of the Sprague-Dawley strain were fed Purina rat chow ad libidum. The rats were maintained on a light (7 A.M.-6 P.M.) -dark (6 P.M.-7 A.M.) cycle throughout the study and for a period of at least 4 days prior to the initiation of the study.
(§8) 3β-Hexadecanoyloxy-5α-cholest-8(14)-en-15-one (5 mg; dissolved in 0.25 ml of triolein), hereafter referred to as the "palmitate ester", or 3β-hemisuccinoyloxy-5α-cholest-8(14)-en-15-one (5 mg; suspended in 0.25 ml of triolein through the use of a tight-fitting all-glass homogenizer), hereafter referred to as the "hemisuccinate ester", were administered subcutaneously once a day at about 12 P.M. to each of eight and six rats, respectively. Control animals (8) received daily injections of triolein (0.25 ml).
Blood samples were taken from the rats periodically and the serum cholesterol concentrations measured, in duplicate, by the method of Abell et al., J. Biol. Chem., Vol. 195, pp. 357-366 ([…]).
Following generally the procedure described in Example 41, 3β-Ethoxy-14α-ethyl-5α-cholest-7-en-15-one (5 mg) in triolein (0.25 ml) was administered subcutaneously once a day to each of eight rats. Control animals (8) received daily injections of triolein (0.25 ml).
Similarly, 5α-cholest-8(14)-en-3β-ol-15-one (2mg) in (0.2 ml) olive oil or 5.0 mg in 0.5 ml of olive oil) was administered subcutaneously once a day to each of a group of rats. The 2 mg dose was administered to 12 rats, while a like number of rats received daily injections of 0.2 ml olive oil. 5 mg doses were administered to each of 6 rats, while 6 control animals received daily injections of 0.5 ml olive oil. The rats used in this study initially weighed between 110 and 190 grams.

[5] = assay type: in vivo, rat (male, Sprague-Dawley)
Procedure: as §8
The average percentage weight gain over the total experimental period in the palmitate, hemisuccinate, and triolein groups were (mean±S.E.M.) 40.5±4.6, 40.7±1.6, and 43.6±3.3, respectively.

liver = assay type: in vivo, rat (male, Sprague-Dawley); conditions: 5 mg s.c. once a day
Procedure: as §8
The mean values of the liver weights of the triolein-treated rats (9.6 g±0.08, S.E.M.). S.E. differed from those of the palmitate ester-treated rats (11.4 g±0.5, S.E.M.). Similarly, the mean value of the liver weights, when expressed as a percentage of the total body weight, of the triolein-treated rats (4.09%±0.08, S.E.M.) differed from the mean value for the palmitate ester-treated rats (4.53%±0.09, S.E.M.).

[6] = system: sterol biosynthesis in L cells; conditions: L cell cultures; as reported by Kandutsch and Chen; read-out: Concentrations Required for 50% Inhibition of Sterol Synthesis; cited from earlier work
[7] = system: sterol biosynthesis in primary cultures of mouse liver cells; conditions: primary cultures of liver cells, cited from earlier work; for IC50: as reported by Kandutsch and Chen, read-out: Concentrations Required for 50% Inhibition of Sterol Synthesis

Compound	IC50 [1] [µM]	IC50 [2] [µM]	IC50 (HMG-CoA reductase [3]) [µM]	IC50 (HMG-CoA reductase [4]) [µM]	other results
CC(C)CCC[C@@H](C)[C@H]1CC(=O)[C@@]2(C)C3=CC[C@H]4C[C@@H](O)CC[C@]4(C)[C@H]3CC[C@]12C [14α-Methyl-5α-cholest-7-en-3β-ol-15-one, 14α-methyl-5α-cholest-7-en-3β-ol-15-one]	0.3	4.5	0.3	2.8	–
CCCCCCCCCCCCCCCC(=O)O[C@H]1CC[C@@]2(C)[C@@H](CCC3=C4C(=O)C[C@H]([C@H](C)CCCC(C)C)[C@@]4(C)CC[C@@H]32)C1 [3β-hexadecanoyloxy-5α-cholest-8(14)-en-15-one]	–	–	–	–	Serum Cholesterol (Mean ± S.E.M.) (serum cholesterol; day 0 (initial)): 91.6 ± 2.6 mg per 100 ml; Serum Cholesterol (Mean ± S.E.M.) (serum cholesterol; day 3): 74.9 ± 3.9 mg per 100 ml; Serum Cholesterol (Mean ± S.E.M.) (serum cholesterol; day 6): 75.8 ± 5.0 mg per 100 ml; Serum Cholesterol (Mean ± S.E.M.) (serum cholesterol; day 9): 77.9 ± 5.9 mg per 100 ml; Serum Cholesterol (Mean ± S.E.M.) (serum cholesterol; day 12): 61.4 ± 3.9 mg per 100 ml; decrease in serum cholesterol levels (in words) (serum cholesterol; 5 mg s.c. once a day, after 3, 6, 9, 12 days vs same rats before, after 12 days vs triolein): significant decreases in serum cholesterol levels; % Reduction of serum cholesterol (Mean ± S.E.M.) (serum cholesterol; 5 mg s.c. once a day, day 3): 18.2 ± 3.3%; % Reduction of serum cholesterol (Mean ± S.E.M.) (serum cholesterol; 5 mg s.c. once a day, day 6): 15.7 ± 4.4%; % Reduction of serum cholesterol (Mean ± S.E.M.) (serum cholesterol; 5 mg s.c. once a day, day 9): 14.5 ± 2.9%; % Reduction of serum cholesterol (Mean ± S.E.M.) (serum cholesterol; 5 mg s.c. once a day, day 12): 33.2 ± 2.7%; average percentage weight gain (mean±S.E.M.) ([5]; 5 mg s.c. once a day, total experimental period): 40.5±4.6%; differences in growth versus vehicle-treated rats (in words) ([5]; daily s.c.): no significant differences in the growth; difference of liver weights from triolein-treated rats (in words) (liver): differed; liver weight (mean, S.E.M.) (liver): 11.4 g; liver weight as percentage of total body weight (mean, S.E.M.) (liver): 4.53%; IC50 ([1]; L cell cultures): > 16 µM
CC[C@@]12C(=O)C[C@H]([C@H](C)CCCC(C)C)[C@@]1(C)CC[C@H]1C2=CC[C@H]2C[C@@H](O)CC[C@@]21C [14α-Ethyl-5α-cholest-7-en-3β-ol-15-one, 14α-ethyl-5α-cholest-7-en-3β-ol-15-one]	0.3	2.1	1.9	2.1	–
CC(C)CCC[C@@H](C)[C@H]1C[C@@H](O)C2=C3CC[C@H]4C[C@@H](O)CC[C@]4(C)[C@H]3CC[C@@]21C [5α-Cholest-8(14)-en-3β,15β-diol]	1.8	10.3	2.5	16.1	–
CC(C)CCC[C@@H](C)[C@H]1C[C@H](O)[C@@H]2C3=CC[C@H]4C[C@@H](O)CC[C@]4(C)[C@H]3CC[C@]12C [5α,14β-Cholest-7-en-3β,15α-diol, 5α,14β-cholest-7-en-3β,15α-diol]	3.2	7.5	6.7	12.5	–
CC(C)CCC(=O)[C@@H](C)[C@H]1CC[C@H]2[C@@H]3CC=C4C[C@@H](O)CC[C@]4(C)[C@H]3CC[C@]12C [Cholest-5-en-3β-ol-22-one]	–	–	–	–	IC50 [6]: 1.7 µM; IC50 [7]: 37 µM
CC(C)CCC[C@@H](C)[C@H]1CC[C@H]2[C@@H]3CC=C4C[C@@H](O)CC[C@]4(C)[C@H]3CC[C@]12C [Cholesterol]	–	–	–	–	IC50 [7]: > 5200 µM; activity in the liver cell culture system (in words) [7]: inactive
CC(C)CCC(O)[C@@H](C)[C@H]1CC[C@H]2[C@@H]3CC=C4C[C@@H](O)CC[C@]4(C)[C@H]3CC[C@]12C (stereo partly drawn) [Cholest-5-en-3β,22α-diol]	–	–	–	–	IC50 [6]: 3.7 µM; IC50 [7]: 6 µM
CO[C@H]1CC[C@@]2(C)[C@@H](CC=C3[C@@H]2CC[C@]2(C)[C@@H]([C@H](C)CCCC(C)C)C[C@@H](O)[C@@]32C)C1 [3β-methoxy-14α-methyl-5α-cholest-7-en-15β-ol]	1.4	3.5	3.7	3.5	–
CC(C)CCC[C@@H](C)[C@H]1C[C@@H](O)[C@@H]2C3=CC[C@H]4C[C@@H](O)CC[C@]4(C)[C@H]3CC[C@]12C [5α,14β-Cholest-7-en-3β,15β-diol, 5α,14β-cholest-7-en-3β,15β-diol]	1	2.5	4.5	6	–
CC(C)CCC[C@@H](C)[C@H]1C[C@H](O)[C@@]2(C)C3=CC[C@H]4C[C@@H](O)CC[C@]4(C)[C@H]3CC[C@]12C [14α-Methyl-5α-cholest-7-en-3β,15α-diol]	0.3	1.8	0.3	2	–
CC(C)CCC[C@@H](C)[C@H]1C[C@@H](O)[C@@]2(C)C3=CC[C@H]4C[C@@H](O)CC[C@]4(C)[C@H]3CC[C@]12C [14α-Methyl-5α-cholest-7-en-3β,15β-diol]	0.5	–	1.2	4.3	–
CC(C)CCC[C@@H](C)[C@H]1CC(O)C2=C3C(O)C[C@H]4C[C@@H](O)CC[C@]4(C)[C@H]3CC[C@@]21C (stereo partly drawn) [5α-cholest-8(14)-en-3β,7ε,15ε-triol]	–	–	1.9	18	IC50 ([1]; L cell cultures): 5 µM; IC50 ([2]; primary cultures of liver cells): 4.8 µM
CO[C@H]1CC[C@@]2(C)[C@@H](CC=C3[C@@H]2CC[C@]2(C)[C@@H]([C@H](C)CCCC(C)C)C[C@H](O)[C@@]32C)C1 [3β-methoxy-14α-methyl-5α-cholest-7-en-15α-ol]	0.3	1.9	3	1.6	–

From US4202891A, “15-Oxygenated sterol compounds and the use of such compounds to inhibit the biosynthesis of sterols” (priority 1977, dated 1980)
